Source: PubChem BioAssay AID1845204 (Molecular Pharmacology Branch, DTP, NCI, 2023)
Activity calls are given as the source filed them. How the source made its calls: active means viability on the fitted dose curve at most 10% of control; inactive means the rest.

Test system: HSSY-II tumor spheroid viability
Experiment: Anticancer human tumor HSSY-II cell line growth inhibition;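 on IC50: spheroids exposed to compounds for seven days before reading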;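 on viability, T/C: spheroids exposed to compounds for seven days before reading; percent of DMSO vehicle control viability so 100% = untreated level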
Details: spheroids with HUVEC and MSC; for IC50: curve of first compound; for viability, T/C: stronger effect = lower value
Method in brief: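 Complex spheroids of malignant cells with endothelial cells and mesenchymal stem cells; agents alone or combined, from near clinical Cmax (or 10 microM if unknown) down in half-log steps, 0.25% DMSO final.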

[1] = second compound 30 pM, first compound 0.00949 µM
[2] = second compound 30 pM, first compound 0.03 µM
[3] = second compound 30 pM, first compound 0.0949 µM
[4] = second compound 30 pM, first compound 0.3 µM
[5] = second compound 30 pM, first compound 0.949 µM
[6] = second compound 30 pM, first compound 3 µM
[7] = second compound 94.9 pM, first compound 0.00949 µM
[8] = second compound 94.9 pM, first compound 0.03 µM
[9] = second compound 94.9 pM, first compound 0.0949 µM
[10] = second compound 94.9 pM, first compound 0.3 µM
[11] = second compound 94.9 pM, first compound 0.949 µM
[12] = second compound 94.9 pM, first compound 3 µM
[13] = second compound 0.0003 µM, first compound 0.00949 µM
[14] = second compound 0.0003 µM, first compound 0.03 µM
[15] = second compound 0.0003 µM, first compound 0.0949 µM
[16] = second compound 0.0003 µM, first compound 0.3 µM
[17] = second compound 0.0003 µM, first compound 0.949 µM
[18] = second compound 0.0003 µM, first compound 3 µM
[19] = second compound 0.000949 µM, first compound 0.00949 µM
[20] = second compound 0.000949 µM, first compound 0.03 µM
[21] = second compound 0.000949 µM, first compound 0.0949 µM
[22] = second compound 0.000949 µM, first compound 0.3 µM
[23] = second compound 0.000949 µM, first compound 0.949 µM
[24] = second compound 0.000949 µM, first compound 3 µM
[25] = second compound 0.003 µM, first compound 0.00949 µM
[26] = second compound 0.003 µM, first compound 0.03 µM
[27] = second compound 0.003 µM, first compound 0.0949 µM
[28] = second compound 0.003 µM, first compound 0.3 µM
[29] = second compound 0.003 µM, first compound 0.949 µM
[30] = second compound 0.003 µM, first compound 3 µM

| SMILES | IC50 (second compound 30 pM) [nM] | IC50 (second compound 94.9 pM) [nM] | IC50 (second compound 0.0003 µM) [nM] | IC50 (second compound 0.000949 µM) [nM] | IC50 (second compound 0.003 µM) [nM] | viability, T/C [3] [%] | viability, T/C [4] [%] | viability, T/C [5] [%] | viability, T/C [6] [%] | viability, T/C [9] [%] | viability, T/C [10] [%] | viability, T/C [11] [%] | viability, T/C [12] [%] | viability, T/C [15] [%] | viability, T/C [16] [%] | viability, T/C [17] [%] | viability, T/C [18] [%] | viability, T/C [22] [%] | viability, T/C [23] [%] | viability, T/C [24] [%] | other results |
| --- | --- | --- | --- | --- | --- | --- | --- | --- | --- | --- | --- | --- | --- | --- | --- | --- | --- | --- | --- | --- | --- |
| CNCc1ccc(-c2cc(-c3nc(-c4ccc(S(=O)(=O)C(C)C)cc4)cnc3N)on2)cc1 + COc1cc2c(cc1O)CCNC21CSC2c3c(OC(C)=O)c(C)c4c(c3C(COC1=O)N1C(O)C3Cc5cc(C)c(OC)c(O)c5C(C21)N3C)OCO4 | 31.5 | 11.5 | < 9.49 | < 9.49 | < 9.49 | 7.62 | 4.24 | 1.27 | 0.11 | 4.64 | 4.08 | 1.02 | 0.1 | 3.66 | 3.41 | 0.72 | 0.12 | 1.1 | 0.09 | 0.15 | viability, T/C [1]: 93.8%; viability, T/C [2]: 51.9%; viability, T/C [7]: 57%; viability, T/C [8]: 15.9%; viability, T/C [13]: 10.1%; viability, T/C [14]: 5.43%; viability, T/C [19]: 2.93%; viability, T/C [20]: 2.47%; viability, T/C [21]: 2.03%; viability, T/C [25]: 0.22%; viability, T/C [26]: 0.27%; viability, T/C [27]: 0.21%; viability, T/C [28]: 0.2%; viability, T/C [29]: 0.18%; viability, T/C [30]: 0.25% |
| Cc1sc2c(c1C)C(c1ccc(Cl)cc1)=NC(CC(=O)Nc1ccc(O)cc1)c1nnc(C)n1-2 (stereo not given) + COc1cc2c(cc1O)CCNC21CSC2c3c(OC(C)=O)c(C)c4c(c3C(COC1=O)N1C(O)C3Cc5cc(C)c(OC)c(O)c5C(C21)N3C)OCO4 | 108 | 54 | < 9.49 | < 9.49 | < 9.49 | 53.1 | 23.3 | 14.2 | 7.89 | 40.5 | 19.5 | 11.1 | 4.34 | 10.5 | 4.16 | 1.76 | 0.21 | 0.18 | 0.05 | 0.12 | viability, T/C [1]: 84.8%; viability, T/C [2]: 78.4%; viability, T/C [7]: 76.4%; viability, T/C [8]: 60.5%; viability, T/C [13]: 11.4%; viability, T/C [14]: 13.4%; outcome [19]: active; viability, T/C [20]: 1.98%; outcome [21]: active; viability, T/C [25]: 0.14%; viability, T/C [26]: 0.14%; viability, T/C [27]: 0.17%; viability, T/C [28]: 0.17%; viability, T/C [29]: 0.14%; viability, T/C [30]: 0.27% |
| Cn1ncnc1[C@H]1c2n[nH]c(=O)c3cc(F)cc(c23)N[C@@H]1c1ccc(F)cc1 + COc1cc2c(cc1O)CCNC21CSC2c3c(OC(C)=O)c(C)c4c(c3C(COC1=O)N1C(O)C3Cc5cc(C)c(OC)c(O)c5C(C21)N3C)OCO4 | 36.7 | < 9.49 | < 9.49 | < 9.49 | < 9.49 | 32 | 14.4 | 9.09 | 6.64 | 15.6 | 10.5 | 8.55 | 6.28 | 8.23 | 7.73 | 6.35 | 3.6 | 2.07 | 0.53 | 0.15 | viability, T/C [1]: 65.3%; viability, T/C [2]: 53.8%; viability, T/C [7]: 32.6%; viability, T/C [8]: 25.6%; viability, T/C [13]: 8.74%; viability, T/C [14]: 9.03%; viability, T/C [19]: 2.25%; viability, T/C [20]: 1.71%; viability, T/C [21]: 1.81%; viability, T/C [25]: 0.2%; viability, T/C [26]: 0.25%; viability, T/C [27]: 0.2%; viability, T/C [28]: 0.15%; viability, T/C [29]: 0.14%; viability, T/C [30]: 0.26% |
| O=C(c1cc(Cc2n[nH]c(=O)c3ccccc23)ccc1F)N1CCN(C(=O)C2CC2)CC1 + COc1cc2c(cc1O)CCNC21CSC2c3c(OC(C)=O)c(C)c4c(c3C(COC1=O)N1C(O)C3Cc5cc(C)c(OC)c(O)c5C(C21)N3C)OCO4 | 3000 | 875 | < 94.9 | < 94.9 | < 94.9 | 91.1 | 85.6 | 81.6 | 50.9 | 73 | 65.4 | 49.7 | 20.2 | 11.3 | 10.6 | 8.99 | 8.1 | 1.82 | 2.22 | 1.13 | viability, T/C (second compound 30 pM, first compound 9.49 µM): 12.3%; viability, T/C (second compound 30 pM, first compound 30 µM): 11.1%; viability, T/C (second compound 94.9 pM, first compound 9.49 µM): 9.72%; viability, T/C (second compound 94.9 pM, first compound 30 µM): 8.42%; viability, T/C (second compound 0.0003 µM, first compound 9.49 µM): 7.62%; viability, T/C (second compound 0.0003 µM, first compound 30 µM): 5.94%; viability, T/C [21]: 2.49%; viability, T/C (second compound 0.000949 µM, first compound 9.49 µM): 0.5%; viability, T/C (second compound 0.000949 µM, first compound 30 µM): 0.21%; viability, T/C [27]: 0.29%; viability, T/C [28]: 0.34%; viability, T/C [29]: 0.26%; viability, T/C [30]: 0.22%; viability, T/C (second compound 0.003 µM, first compound 9.49 µM): 0.24%; viability, T/C (second compound 0.003 µM, first compound 30 µM): 0.36% |
